Measurements reported in US20200172489A1, “FLUORESCENT COMPOUND AND AUTOPHAGY DETECTION REAGENT USING SAME” (DOJINDO LABORATORIES, priority 2017, published 2020).
Where a name gives a salt, the structure may show the parent alone.

Assays:
HeLa cells [1] = experiment: Autophagy detection test (1): evaluation using flow cytometry; type: cell-based; conditions: 1 μM; starvation condition, 6 hours and 20 hours; FIG. 3
Description: HeLa cells were seeded on a 24 well plate and incubated in a CO2 incubator at 37° C. overnight, 1 μM of Compound 4b diluted with serum medium was added and incubated for 30 minutes. After washing twice with the serum-free medium, a medium free from amino acid and serum was added and the cells were incubated at 37° C. for 6 hours or 20 hours. Cell were washed with PBS once, peeled with 0.25% trypsin-EDTA and used for flow cytometric analysis.

HeLa cells [2] = experiment: Autophagy detection test (1): fluorescent microscopy of HeLa cells after introducing the compound, with autophagy induced or inhibited; type: cell-based; conditions: for fluorescent intensity in HeLa cells in the presence of Bafilomycin: Bafilomycin (0.1 μM bafilomycin A1), autophagy hardly occurs; for fluorescent intensity in HeLa cells in the presence of Bafilomycin / fluorescent intensity in HeLa cells, control group / fluorescent intensity in HeLa cells under starvation condition / change of fluorescent intensity in HeLa cells when bafilomycin was added under starvation condition: FIG. 7; for fluorescent intensity in HeLa cells, control group: Control (autophagy hardly occurs); for fluorescent intensity in HeLa cells under starvation condition: Starved; for change of fluorescent intensity in HeLa cells when bafilomycin was added under starvation condition: starvation plus bafilomycin
Description: (§1) HeLa cells were seeded on a μ-slide 8 well (Ibidi) and incubated in a CO2 incubator at 37° C. overnight. Compound 4b (1 μM) or Compound 6h (0.1 μM) diluted with serum medium was added and incubated for 30 minutes. After washing twice with serum medium, the cells were incubated at 37° C. for 6 hours or 20 hours in an amino acid-free medium of serum containing-medium and observed with a fluorescent microscope. As an autophagy inducing agent, 0.5 μM Rapamycin was used and as an autophagy inhibiting agent, 10 μM chloroquine and 0.1 μM bafilomycin A1 were used.

HeLa cells [3] = experiment: Autophagy detection test (4): staining of HeLa cells with Compound 4b and Compound 13, fluorescent microscopy; type: cell-based; conditions: Compound 4b 1 μM and Compound 13 0.1 μM; 3 hours or 6 hours; FIG. 12
Description: as §1, with “13” for “6h”, “3” for “6”, “6” for “20”, “microscope.” for “microscope. As an autophagy inducing agent, 0.5 μM Rapamycin was used and as an autophagy inhibiting agent, 10 μM chloroquine and 0.1 μM bafilomycin A1 were used.”

HeLa cells [4] = experiment: Autophagy detection test (2): fluorescent microscopy of HeLa cells under starvation condition; type: cell-based; conditions: 0.1 μM; Starve vs Control; incubated 5 hours; FIG. 10
Description: HeLa cells were seeded on a μ-slide 8 well (Ibidi) and incubated in a CO2 incubator at 37° C. overnight. Compound 6h diluted with a serum medium (0.1 μM) was added and incubated for 30 minutes. After washing twice with serum medium, the cells were incubated at 37° C. for 5 hours in an amino acid-free medium of serum containing-medium and observed with a fluorescent microscope.

HeLa cells [5] = experiment: Autophagy detection test (3): co-staining of HeLa cells with Compound 6h and Compound 11, fluorescent microscopy; type: cell-based; conditions: Compound 6h 1 μM and Compound 11 0.1 μM; 3 hours or 6 hours; FIG. 11
Description: HeLa cells were seeded on a μ-slide 8 well (Ibidi) and incubated in a CO2 incubator at 37° C. overnight. Compound 6h (1 μM) and Compound 11 (0.1 μM) diluted with serum medium was added and incubated for 30 minutes. After washing twice with serum medium, the cells were incubated at 37° C. for 3 hours or 6 hours in an amino acid-free medium of serum containing-medium and observed with a fluorescent microscope.

[6] = pH dependence of fluorescent intensity of the fluorescent compounds; type: physicochemical; conditions: for pH dependence of fluorescent intensity: FIG. 6

| Structure (SMILES) | usefulness for detecting autophagy by flow cytometry (HeLa cells [1]) | fluorescent intensity in HeLa cells in the presence of Bafilomycin (HeLa cells [2]) | fluorescent intensity in HeLa cells, control group (HeLa cells [2]) | fluorescent intensity in HeLa cells, autophagy induced by adding Rapamycin (HeLa cells [2]; Rapamycin & Chloroquine group vs Control, 0.5 μM Rapamycin, 10 μM chloroquine, incubated 6 hours and 20 hours, FIG. 2) | fluorescent intensity in HeLa cells, autophagy induced by starvation culture (HeLa cells [2]; Starved group vs Control, incubated 6 hours and 20 hours, FIG. 2) | fluorescent intensity in HeLa cells under starvation condition (HeLa cells [2]; autophagy induced) | change of fluorescent intensity in HeLa cells when bafilomycin was added under starvation condition (HeLa cells [2]) | staining pattern in HeLa cells under starvation condition, two compounds introduced together (HeLa cells [3]) | shape of fluorescent emission in high-magnification fluorescent microscopic images (HeLa cells [2]; HeLa cells, autophagy induced, FIG. 8, A-1 and A-2) | fluorescent intensity in HeLa cells under starvation condition (HeLa cells [4]) | staining pattern in HeLa cells under starvation condition, two compounds introduced together (HeLa cells [5]) | pH dependence of fluorescent intensity [6] | pH (acidic condition) under which the fluorescent intensity increases ([6]; FIG. 1 / FIG. 9) |
| --- | --- | --- | --- | --- | --- | --- | --- | --- | --- | --- | --- | --- | --- |
| CCCCCN1C(=O)c2cccc3c(N4CCN(CCN)CC4)ccc(c23)C1=O [Compound 4b, 2-(4-(1,3-dioxo-2-pentyl-2,3-dihydro-1H-benzo[de]isoquinolin-6-yl)piperazin-1-yl)ethane-1-amine hydrochloride salt] | useful for detecting autophagy using not only fluorescent microscopy but also flow cytometry | low | low | enhancement of the fluorescent intensities was observed | enhancement of the fluorescent intensities was observed | high | decreased | granular points stained only by Compound 4b and granular points co-stained by Compound 4b and Compound 13 |  |  |  |  |  |
| CCCCCN1C(=O)c2cccc3c(NCCCCCN)ccc(c23)C1=O [Compound 6h, hydrochloride salt] |  | low | low |  |  | high | did not decrease |  | ring-shaped fluorescent emission | enhancement of the fluorescent intensity was observed | granular points stained only by Compound 6h and granular points co-stained by Compound 6h and Compound 11 | no pH dependence |  |
| CCCCCN1C(=O)c2ccc3c4cccc5c(N6CCN(CCN)CC6)ccc(c6ccc(c2c36)C1=O)c54 [Compound 11, 8-(4-(2-aminoethyl)piperazin-1-yl)-2-pentyl-1H-benzo[10,5]anthra[2,1,9-def]isoquinolin-1,3(2H)-dione] |  |  |  |  |  |  |  |  |  |  | granular points co-stained by Compound 6h and Compound 11 |  | ≤ 6 |
| CCCCCN1C(=O)c2ccc3c4cccc5c(NCCCCCN)ccc(c6ccc(c2c36)C1=O)c54 [Compound 13, 5-((1,3-dioxo-2-pentyl-2,3-dihydro-1H-benzo[10,5]anthra[2,1,9-def]isoquinolin-8-yl)amino)pentane-1-amine hydrochloric salt] |  |  |  |  |  |  |  | granular points co-stained by Compound 4b and Compound 13 |  |  |  | no pH dependence |  |
